Laboratory results from PMC5382537, “Molecular Basis of Olfactory Chemoreception in the Common Bed Bug, Cimex lectularius” (Scientific Reports, 2017).

Columns and labels:
Assay in all cases: two-electrode voltage clamp, Xenopus oocytes
[1] = tested on: T1, OR20; type: cell-based, Cimex lectularius; conditions: co-expressed with ORCO; pH 7.6 Ringer's solution; −80 mV; agonist current
T1 construct: full-length cDNA from adult antennae in pT7Ts; co-expressed with ORCO in Xenopus oocytes; with Odorant receptor coreceptor

[2] = tested on: T2, OR21; type: cell-based, Cimex lectularius; conditions: co-expressed with ORCO; pH 7.6 Ringer's solution; −80 mV; agonist current
T2 construct: full-length cDNA from adult antennae in pT7Ts; co-expressed with ORCO in Xenopus oocytes; with Odorant receptor coreceptor

[3] = tested on: T3, OR19; type: cell-based, Cimex lectularius; conditions: co-expressed with ORCO; pH 7.6 Ringer's solution; −80 mV; agonist current
T3 construct: full-length cDNA from adult antennae in pT7Ts; co-expressed with ORCO in Xenopus oocytes; with Odorant receptor coreceptor

[4] = target: T4, OR37 (Cimex lectularius, UniProt A0A8I6S1W4); type: cell-based; conditions: co-expressed with ORCO; pH 7.6 Ringer's solution; −80 mV; agonist current
T4 construct: gene 106669445; full-length cDNA from adult antennae in pT7Ts; co-expressed with ORCO in Xenopus oocytes; with Odorant receptor coreceptor
T4 sequence (A0A8I6S1W4 1-374): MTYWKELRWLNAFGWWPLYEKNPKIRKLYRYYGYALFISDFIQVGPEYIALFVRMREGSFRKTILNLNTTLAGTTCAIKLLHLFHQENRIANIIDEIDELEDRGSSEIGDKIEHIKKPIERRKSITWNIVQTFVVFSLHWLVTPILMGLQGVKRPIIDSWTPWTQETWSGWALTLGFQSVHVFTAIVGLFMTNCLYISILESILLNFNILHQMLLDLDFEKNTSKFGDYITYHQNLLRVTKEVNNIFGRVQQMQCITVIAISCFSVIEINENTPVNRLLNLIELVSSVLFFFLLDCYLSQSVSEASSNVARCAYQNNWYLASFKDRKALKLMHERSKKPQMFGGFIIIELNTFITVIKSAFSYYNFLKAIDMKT
T4 sequence (A0A0A0U7J0 1-451 partner): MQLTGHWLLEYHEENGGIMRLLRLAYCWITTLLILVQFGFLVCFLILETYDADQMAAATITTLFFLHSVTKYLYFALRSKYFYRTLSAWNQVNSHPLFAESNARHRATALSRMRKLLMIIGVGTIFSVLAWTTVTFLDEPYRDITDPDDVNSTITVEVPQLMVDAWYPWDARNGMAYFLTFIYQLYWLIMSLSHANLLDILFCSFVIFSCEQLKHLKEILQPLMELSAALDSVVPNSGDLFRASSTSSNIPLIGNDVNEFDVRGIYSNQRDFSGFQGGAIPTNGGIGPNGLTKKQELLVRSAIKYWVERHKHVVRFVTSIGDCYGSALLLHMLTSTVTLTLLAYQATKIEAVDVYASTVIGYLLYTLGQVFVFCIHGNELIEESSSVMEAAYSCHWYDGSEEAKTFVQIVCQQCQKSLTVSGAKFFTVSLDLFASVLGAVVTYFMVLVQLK

[5] = tested on: T5, OR46; type: cell-based, Cimex lectularius; conditions: co-expressed with ORCO; pH 7.6 Ringer's solution; −80 mV; agonist current
T5 construct: full-length cDNA from adult antennae in pT7Ts; co-expressed with ORCO in Xenopus oocytes; with Odorant receptor coreceptor

[6] = tested on: T6, OR36; type: cell-based, Cimex lectularius; conditions: co-expressed with ORCO, pH 7.6 Ringer's solution, −80 mV, agonist current
T6 construct: full-length cDNA from adult antennae in pT7Ts; co-expressed with ORCO in Xenopus oocytes; with Odorant receptor coreceptor

[7] = tested on: T7, OR42; type: cell-based, Cimex lectularius; conditions: co-expressed with ORCO; pH 7.6 Ringer's solution; −80 mV; agonist current
T7 construct: full-length cDNA from adult antennae in pT7Ts; co-expressed with ORCO in Xenopus oocytes; with Odorant receptor coreceptor

[8] = tested on: T8, OR1; type: cell-based, Cimex lectularius; conditions: co-expressed with ORCO; pH 7.6 Ringer's solution; −80 mV; agonist current
T8 construct: full-length cDNA from adult antennae in pT7Ts; co-expressed with ORCO in Xenopus oocytes; OR numbering of the bed bug genome annotation (47 ORs), not the earlier group naming in which OR5 was called OR1; with Odorant receptor coreceptor

[9] = tested on: T9, OR47; type: cell-based, Cimex lectularius; conditions: co-expressed with ORCO; pH 7.6 Ringer's solution; −80 mV; agonist current
T9 construct: full-length cDNA from adult antennae in pT7Ts; co-expressed with ORCO in Xenopus oocytes; with Odorant receptor coreceptor

[10] = tested on: T10, OR5; type: cell-based, Cimex lectularius; conditions: co-expressed with ORCO; pH 7.6 Ringer's solution; −80 mV; agonist current
T10 construct: full-length cDNA from adult antennae in pT7Ts; co-expressed with ORCO in Xenopus oocytes; called OR1 in the group's previous work; with Odorant receptor coreceptor

[11] = tested on: T11, OR12; type: cell-based, Cimex lectularius; conditions: co-expressed with ORCO; pH 7.6 Ringer's solution; −80 mV; agonist current
T11 construct: full-length cDNA from adult antennae in pT7Ts; co-expressed with ORCO in Xenopus oocytes; with Odorant receptor coreceptor

[12] = tested on: T12, OR15; type: cell-based, Cimex lectularius; conditions: co-expressed with ORCO; pH 7.6 Ringer's solution; −80 mV; agonist current
T12 construct: full-length cDNA from adult antennae in pT7Ts; co-expressed with ORCO in Xenopus oocytes; with Odorant receptor coreceptor

C=CC(O)CCCCC (centres unmarked) [1-octen-3-ol]
EC50 [1]: 6.95 × 10^−6 v/v dilution

CC1=CC[C@@H]2[C@H](C1)C2(C)C [1s-(+)-3-carene]
EC50 [1]: 6.85 × 10^−6 v/v dilution

CCCCCCCCC(C)O (centres unmarked) [2-decanol]
EC50 [2]: 7.55 × 10^−6 v/v dilution

CCCCC(C)=O [2-hexanone]
EC50 [3]: 1.33 × 10^−6 v/v dilution

CCCC(C)=O [2-pentanone]
EC50 [3]: 4.13 × 10^−6 v/v dilution

CC(C)[C@H]1CC[C@H](C)CC1=O [(+)-menthone]
EC50 [4]: 1.93 × 10^−7 v/v dilution
EC50 [5]: 3.46 × 10^−5 v/v dilution
EC50 ([6]; b26 prints 9.67 × 10^−8 for the same pair): 9.92 × 10^−8 v/v dilution

CC1=CC[C@@H]2C[C@H]1C2(C)C [(+)-α-pinene]
EC50 [7]: 1.32 × 10^−5 v/v dilution

CC(C)[C@@H]1CC[C@@H](C)CC1=O [(−)-menthone]
EC50 [6]: 1.64 × 10^−7 v/v dilution

CC12CCC(CC1=O)C2(C)C (centres unmarked) [camphor]
EC50 [8]: 1.94 × 10^−5 v/v dilution

CC(C)=CCCC(C)=CC=O [citral]
EC50 [4]: 3.32 × 10^−8 v/v dilution

O=c1ccc2ccccc2o1 [coumarin]
EC50 [9]: 2 × 10^−5 v/v dilution
EC50 [7]: 1.45 × 10^−5 v/v dilution

CCCCCCCCCC=O [decanal]
EC50 [2]: 4.27 × 10^−6 v/v dilution
EC50 [10]: 1.53 × 10^−6 v/v dilution

CC12CCC(CC1)C(C)(C)O2 [eucalyptol]
EC50 [8]: 1.88 × 10^−5 v/v dilution

CCCCCCCCC=O [nonanal]
EC50 [10]: 1.32 × 10^−7 v/v dilution

CCCCC/C=C/CO [trans-2-octen-1-ol]
EC50 [11]: 1.03 × 10^−4 v/v dilution

C=C1CC/C=C(\C)CC[C@@H]2[C@@H]1CC2(C)C [β-caryophyllene]
EC50 [12]: 6.46 × 10^−6 v/v dilution
